In PMC11851430, “Workflow for E3 Ligase Ligand Validation for PROTAC Development” (ACS Chemical Biology, 2025) one finds ΔTm data, which are given here for three molecules.

The structures appear in SMILES notation.

Assay in all cases: DSF assay
What all share (format): binding
Holding throughout (settings): 20 µM compound
For orientation: Differential scanning fluorimetry follows unfolding on heating by fluorescence.

In test [1] the target is T1, MAPKAPK2A (Homo sapiens, UniProt P49137).
T1 construct: purchased in-house DSF panel (SGC-style construct names; the trailing A/B is a construct suffix)
T1 sequence (P49137 64-325): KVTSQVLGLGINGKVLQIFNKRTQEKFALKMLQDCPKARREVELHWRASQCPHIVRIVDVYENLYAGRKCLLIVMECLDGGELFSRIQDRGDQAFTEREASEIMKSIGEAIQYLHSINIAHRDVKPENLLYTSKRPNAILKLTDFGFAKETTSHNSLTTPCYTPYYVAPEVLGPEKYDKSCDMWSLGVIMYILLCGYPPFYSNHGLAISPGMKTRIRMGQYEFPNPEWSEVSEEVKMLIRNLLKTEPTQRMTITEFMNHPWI

In test [2] the target is T2, DMPK1A (Homo sapiens, UniProt Q09013).
T2 construct: purchased in-house DSF panel (SGC-style construct names; the trailing A/B is a construct suffix)
T2 sequence (Q09013 1-629): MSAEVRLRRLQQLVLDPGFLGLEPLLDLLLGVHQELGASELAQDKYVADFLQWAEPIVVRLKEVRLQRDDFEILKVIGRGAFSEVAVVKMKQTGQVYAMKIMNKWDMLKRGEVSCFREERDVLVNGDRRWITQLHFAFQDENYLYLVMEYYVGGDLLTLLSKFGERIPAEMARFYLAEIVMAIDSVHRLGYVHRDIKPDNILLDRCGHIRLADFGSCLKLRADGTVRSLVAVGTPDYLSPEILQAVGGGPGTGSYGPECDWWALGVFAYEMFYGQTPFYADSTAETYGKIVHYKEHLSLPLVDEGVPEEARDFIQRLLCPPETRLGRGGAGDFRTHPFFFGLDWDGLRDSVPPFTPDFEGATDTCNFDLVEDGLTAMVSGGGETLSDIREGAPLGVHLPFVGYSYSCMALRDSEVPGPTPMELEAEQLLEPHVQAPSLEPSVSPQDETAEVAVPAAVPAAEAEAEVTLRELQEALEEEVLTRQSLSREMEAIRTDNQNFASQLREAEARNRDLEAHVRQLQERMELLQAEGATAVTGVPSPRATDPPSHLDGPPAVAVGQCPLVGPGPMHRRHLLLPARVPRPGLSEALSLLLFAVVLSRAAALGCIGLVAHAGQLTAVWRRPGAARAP

Test [3] has as its target T3, EPHB3A (Homo sapiens, UniProt P54753).
T3 construct: purchased in-house DSF panel (SGC-style construct names; the trailing A/B is a construct suffix)
T3 sequence (P54753 633-896): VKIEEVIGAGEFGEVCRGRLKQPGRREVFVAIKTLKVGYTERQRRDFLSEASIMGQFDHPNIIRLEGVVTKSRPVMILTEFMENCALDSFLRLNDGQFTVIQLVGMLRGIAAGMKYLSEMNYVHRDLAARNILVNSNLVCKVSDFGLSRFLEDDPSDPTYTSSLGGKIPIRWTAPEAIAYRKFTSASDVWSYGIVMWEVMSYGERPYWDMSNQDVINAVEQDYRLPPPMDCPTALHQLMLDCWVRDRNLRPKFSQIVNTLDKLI

For test [4], the target named is T4, CDK2A (Homo sapiens, UniProt P24941).
T4 construct: purchased in-house DSF panel (SGC-style construct names; the trailing A/B is a construct suffix)

Test [5] deals with T5, CAMK1DA (Homo sapiens, UniProt Q8IU85).
T5 construct: purchased in-house DSF panel (SGC-style construct names; the trailing A/B is a construct suffix)
T5 sequence (Q8IU85 whole entry): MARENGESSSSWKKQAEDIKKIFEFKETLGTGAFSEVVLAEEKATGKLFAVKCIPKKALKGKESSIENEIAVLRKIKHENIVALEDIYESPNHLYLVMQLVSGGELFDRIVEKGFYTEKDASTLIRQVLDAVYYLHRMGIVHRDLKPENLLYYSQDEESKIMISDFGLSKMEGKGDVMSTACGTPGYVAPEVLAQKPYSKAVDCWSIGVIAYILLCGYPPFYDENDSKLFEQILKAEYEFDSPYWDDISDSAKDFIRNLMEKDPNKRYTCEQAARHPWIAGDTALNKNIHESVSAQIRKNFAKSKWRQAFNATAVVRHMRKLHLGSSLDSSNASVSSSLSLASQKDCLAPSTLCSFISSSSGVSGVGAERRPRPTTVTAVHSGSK

In test [6] the target is T6, AAK1A (Homo sapiens, UniProt Q2M2I8).
T6 construct: purchased in-house DSF panel (SGC-style construct names; the trailing A/B is a construct suffix)
T6 sequence (Q2M2I8 27-365): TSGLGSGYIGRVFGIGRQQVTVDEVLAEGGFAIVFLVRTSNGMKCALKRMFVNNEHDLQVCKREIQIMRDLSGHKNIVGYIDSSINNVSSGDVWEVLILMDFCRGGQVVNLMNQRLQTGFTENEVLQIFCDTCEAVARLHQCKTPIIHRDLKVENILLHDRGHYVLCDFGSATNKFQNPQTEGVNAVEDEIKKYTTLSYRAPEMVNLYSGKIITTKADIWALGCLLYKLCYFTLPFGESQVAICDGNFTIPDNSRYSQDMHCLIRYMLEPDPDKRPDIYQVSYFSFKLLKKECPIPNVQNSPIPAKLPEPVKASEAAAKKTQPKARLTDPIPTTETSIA

The target in test [7] is T7, EPHA2A (Homo sapiens, UniProt P29317).
T7 construct: purchased in-house DSF panel (SGC-style construct names; the trailing A/B is a construct suffix)
T7 sequence (P29317 596-900): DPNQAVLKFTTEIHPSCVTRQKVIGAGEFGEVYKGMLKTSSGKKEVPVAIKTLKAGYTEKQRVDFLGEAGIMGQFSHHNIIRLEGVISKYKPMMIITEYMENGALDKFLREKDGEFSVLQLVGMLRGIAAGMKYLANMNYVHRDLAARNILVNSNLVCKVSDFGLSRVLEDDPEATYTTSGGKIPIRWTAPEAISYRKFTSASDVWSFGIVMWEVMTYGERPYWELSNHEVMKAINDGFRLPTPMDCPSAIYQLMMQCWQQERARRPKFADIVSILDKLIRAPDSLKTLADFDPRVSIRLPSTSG

Test [8] concerns the target T8, STK6A (Homo sapiens, UniProt O14965).
T8 construct: purchased in-house DSF panel (SGC-style construct names; the trailing A/B is a construct suffix)
T8 sequence (O14965 122-403): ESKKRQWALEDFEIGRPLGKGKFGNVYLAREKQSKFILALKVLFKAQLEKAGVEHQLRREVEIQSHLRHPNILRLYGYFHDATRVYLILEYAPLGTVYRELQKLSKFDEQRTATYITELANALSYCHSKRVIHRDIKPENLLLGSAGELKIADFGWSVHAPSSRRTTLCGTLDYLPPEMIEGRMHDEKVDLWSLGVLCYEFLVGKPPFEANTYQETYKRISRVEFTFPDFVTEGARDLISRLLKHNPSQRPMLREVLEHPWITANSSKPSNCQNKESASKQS

Test [9] has as its system RPS6KA6A.
The target of test [10] is T9, FGFR1B (Homo sapiens, UniProt P11362).
T9 construct: purchased in-house DSF panel (SGC-style construct names; the trailing A/B is a construct suffix)
T9 sequence (P11362 456-767): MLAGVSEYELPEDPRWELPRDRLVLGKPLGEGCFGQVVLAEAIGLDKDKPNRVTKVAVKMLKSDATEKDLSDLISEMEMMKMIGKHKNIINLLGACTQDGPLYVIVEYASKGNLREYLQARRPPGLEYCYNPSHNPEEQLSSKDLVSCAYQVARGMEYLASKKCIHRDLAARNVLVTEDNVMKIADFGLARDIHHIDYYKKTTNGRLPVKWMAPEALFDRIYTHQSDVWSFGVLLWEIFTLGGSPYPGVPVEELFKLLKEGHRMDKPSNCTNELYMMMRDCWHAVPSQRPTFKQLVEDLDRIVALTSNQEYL

Test [11] addresses T10, MAPK1A (Homo sapiens, UniProt P28482).
T10 construct: purchased in-house DSF panel (SGC-style construct names; the trailing A/B is a construct suffix)

In test [12] the target is T11, ULK3A (Homo sapiens, UniProt Q6PHR2).
T11 construct: purchased in-house DSF panel (SGC-style construct names; the trailing A/B is a construct suffix)
T11 sequence (Q6PHR2 1-277): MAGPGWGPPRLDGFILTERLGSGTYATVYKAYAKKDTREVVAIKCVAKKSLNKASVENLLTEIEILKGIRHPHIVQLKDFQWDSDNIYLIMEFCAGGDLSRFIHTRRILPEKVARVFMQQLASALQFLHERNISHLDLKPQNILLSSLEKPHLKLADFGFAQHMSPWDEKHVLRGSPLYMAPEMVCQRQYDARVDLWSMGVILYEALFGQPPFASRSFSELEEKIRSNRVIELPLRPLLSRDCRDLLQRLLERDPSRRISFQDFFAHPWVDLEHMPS

The target of test [13] is T12, RIOK1A (Homo sapiens, UniProt Q9BRS2).
T12 construct: purchased in-house DSF panel (SGC-style construct names; the trailing A/B is a construct suffix)
T12 sequence (Q9BRS2 143-494): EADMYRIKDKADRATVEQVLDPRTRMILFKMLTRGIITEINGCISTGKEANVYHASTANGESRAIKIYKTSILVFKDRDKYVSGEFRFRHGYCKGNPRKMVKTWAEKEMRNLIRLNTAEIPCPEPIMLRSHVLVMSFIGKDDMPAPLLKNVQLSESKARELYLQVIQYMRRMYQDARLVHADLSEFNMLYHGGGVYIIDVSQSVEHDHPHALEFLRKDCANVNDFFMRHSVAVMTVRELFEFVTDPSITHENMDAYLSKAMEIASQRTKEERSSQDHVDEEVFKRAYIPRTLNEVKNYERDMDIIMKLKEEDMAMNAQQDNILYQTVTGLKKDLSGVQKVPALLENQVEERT

For test [14], the target named is T13, MARK4A (Homo sapiens, UniProt Q96L34).
T13 construct: purchased in-house DSF panel (SGC-style construct names; the trailing A/B is a construct suffix)
T13 sequence (Q96L34 59-310): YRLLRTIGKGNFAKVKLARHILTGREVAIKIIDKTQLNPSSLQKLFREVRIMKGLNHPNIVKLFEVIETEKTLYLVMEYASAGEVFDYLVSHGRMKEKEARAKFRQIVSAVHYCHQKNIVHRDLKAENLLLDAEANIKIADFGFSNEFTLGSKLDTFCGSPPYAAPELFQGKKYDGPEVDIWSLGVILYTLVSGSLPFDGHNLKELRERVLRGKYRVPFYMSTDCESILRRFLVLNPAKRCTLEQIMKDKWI

For test [15], the system named is TAF1A.
Test [16] addresses T14, MAP3K5A (Homo sapiens, UniProt Q99683).
T14 construct: purchased in-house DSF panel (SGC-style construct names; the trailing A/B is a construct suffix)

T10 sequence (P28482 whole entry): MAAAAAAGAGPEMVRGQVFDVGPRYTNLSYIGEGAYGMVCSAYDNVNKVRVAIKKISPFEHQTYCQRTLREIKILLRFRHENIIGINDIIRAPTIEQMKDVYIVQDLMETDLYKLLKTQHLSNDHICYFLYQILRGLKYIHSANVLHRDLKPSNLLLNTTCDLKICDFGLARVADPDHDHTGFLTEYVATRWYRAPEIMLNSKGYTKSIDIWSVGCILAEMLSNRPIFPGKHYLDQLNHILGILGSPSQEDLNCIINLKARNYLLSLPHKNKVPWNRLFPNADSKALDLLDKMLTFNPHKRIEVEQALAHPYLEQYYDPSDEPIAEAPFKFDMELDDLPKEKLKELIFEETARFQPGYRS
T14 sequence (Q99683 659-951): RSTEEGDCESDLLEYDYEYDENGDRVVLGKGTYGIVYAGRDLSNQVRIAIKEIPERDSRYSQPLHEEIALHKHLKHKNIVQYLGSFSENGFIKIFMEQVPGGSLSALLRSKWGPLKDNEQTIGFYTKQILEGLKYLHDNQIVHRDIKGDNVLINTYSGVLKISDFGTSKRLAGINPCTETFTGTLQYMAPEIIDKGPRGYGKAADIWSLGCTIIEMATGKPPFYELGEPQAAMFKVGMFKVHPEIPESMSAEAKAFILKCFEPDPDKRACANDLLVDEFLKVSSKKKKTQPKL

Usually ΔTm stands for the change in melting temperature against a reference sample. As for `CC(C)(C)OC(=O)NCCOCCOCCOCCOCCC(=O)N1CCN(c2cc(Nc3cc(C4CC4)[nH]n3)nc(Nc3ccc(CC#N)cc3)n2)CC1` [4-L], the ΔTm at 20 µM came to 0.42 °C in test [1]; 3.19 °C in test [2]; 6.97 °C in [3]; 7.79 °C in [4]; 2.24 °C in test [5]; 13.2 °C in test [6]. Moreover, the ΔTm at 20 µM in test [7] is 8.99 °C; in test [8], 18.7 °C; in test [10], 6.61 °C; in test [11], 3.2 °C; in test [12], 18.5 °C; in test [13], -0.05 °C. Moreover, the ΔTm at 20 µM was found to be 6.16 °C in test [14] and 8.63 °C in test [16]. The figures for the ΔTm in test [9] and in test [15] were 0.07 °C and -0.59 °C, respectively.
As for `CCOC(=O)c1cc(Nc2cc(C3CC3)[nH]n2)nc(Nc2ccc(CC#N)cc2)n1` [compound 5], the ΔTm at 20 µM in test [1] came to 0.53 °C; in test [2] it was 3.8 °C; in test [3] it was 4.23 °C; in test [4] it was 12.5 °C; in [5], 3.94 °C; in [6], 10.1 °C. Also, the ΔTm at 20 µM in test [7] was 6.12 °C; in test [8], 14.4 °C; in test [10], 5.22 °C; in test [11] it was 4.85 °C; in test [12], 15.4 °C; in [13], 4.9 °C. Moreover, the ΔTm at 20 µM in test [14] was determined as 6.15 °C; in test [16], 6.97 °C. The ΔTm amounted to 0.34 °C in [9] and 0.35 °C in test [15].
Take `CC(C)(C)OC(=O)NCCCOCCOCCOCCCNC(=O)c1cc(Nc2cc(C3CC3)[nH]n2)nc(Nc2ccc(CC#N)cc2)n1` [5-L]: the ΔTm at 20 µM in test [1] turned out to be 0.95 °C; in [2] it was 3.69 °C; in [3] it was 2.47 °C; in [4], 7.86 °C; in [5], 3.86 °C; in test [6], 12.1 °C. Besides, the ΔTm at 20 µM in test [7] was determined as 4.48 °C; in test [8], 12.2 °C; in test [10], 3.47 °C; in test [11] it was 4.69 °C; in test [12], 13.3 °C; in [13], 5.35 °C. Also, the ΔTm at 20 µM is 3.21 °C in [14] and 8.95 °C in test [16]. Also, the thermal shift (ΔTm) stood at 0.35 °C in test [9] and 0.26 °C in test [15].
